The source of these data is patent publication US7408063B2, “1,8-annelated quinoline derivatives substituted with carbon-linked triazoles as farnesyl transferase inhibitors” (Janssen Pharmaceutica, N.V., priority 2001, dated 2008).

In data set [1] the target is farnesyl protein transferase (Homo sapiens, UniProt P49354+P49356). As to the kind of experiment: In vitro assay for inhibition of farnesyl protein transferase. It counts as biochemical. To be noted: negative log value of the IC50-value; IC50 = concentration needed to reduce the product of the enzymatic reaction to 50% of the control; read-out: Enzyme activity pIC50 (converted). Here is the method:
An in vitro assay for inhibition of farnesyl transferase was performed essentially as described in WO 98/40383, pages 33-34. When appropriate, IC50-values (concentration of the drug, needed to reduce the product of the enzymatic reaction, to 50% of the conrol) were computed using probit analysis for graded data (Finney, D. J., Probit Analuses, 2nd Ed. Chapter 10, Graded Responses, Cambridge Univerity Press, Cambridge 1962). Herein (see table F-3) the effects of test compounds are expressed as pIC50 (the negative log value of the IC50-value). Also the intermediate compounds described in the table F-1 show activity in the in vitro assay for inhibition of farnesyl protein transferase.

The structures appear in SMILES notation. Where only a bound is given, the exact number is not on record here.

With `Cn1cnnc1C(c1ccc(I)cc1)c1cc2c3c(c1)c(-c1cccc(Cl)c1)cc(=O)n3CC2` (stereo not shown) (hydrate or solvate) [Compound 1, 6-(3-chlorophenyl)-1,2-dihydro-8-[(4-iodophenyl)(4-methyl-4H-1,2,4-triazol-3-yl)methyl]-4H-pyrrolo[3,2,1-ij]quinolin-4-one], the melting point worked out at 194 °C.
As to `Cn1cnnc1C(c1ccc(I)cc1)c1cc2c3c(c1)c(-c1cccc(Cl)c1)cc(=O)n3CC2` (stereo not shown) [Compound 1, 6-(3-chlorophenyl)-1,2-dihydro-8-[(4-iodophenyl)(4-methyl-4H-1,2,4-triazol-3-yl)methyl]-4H-pyrrolo[3,2,1-ij]quinolin-4-one], the IC50 in data set [1] is 21.4 nM.
`Cn1cnnc1C(c1ccc(C#N)cc1)c1cc2c3c(c1)c(-c1cccc(Cl)c1)cc(=O)n3CC2` (stereo not shown) [Compound 2, 4-[[6-(3-chlorophenyl)-1,2-dihydro-4-oxo-4H-pyrrolo[3,2,1-ij]quinolin-8-yl](4-methyl-4H-1,2,4-triazol-3-yl)methyl]-benzonitrile] came in with a melting point of 174 °C. In data set [1], the IC50 was 2.02 nM.
The corresponding values for `Cn1cnnc1C(O)(c1ccc(Cl)cc1)c1cc2c3c(c1)c(-c1cccc(Cl)c1)cc(=O)n3CCC2` (stereo not shown) [Compound 3, 7-(3-chlorophenyl)-9-[(4-chlorophenyl)hydroxy(4-methyl-4H-1,2,4-triazol-3-yl)methyl]-2,3-dihydro-1H,5H-benzo[ij]quinolizin-5-one] are 183 °C and 8.18 nM.
As for `Cn1cnnc1C(O)(c1ccc(F)cc1)c1cc2c3c(c1)c(-c1cccc(Cl)c1)cc(=O)n3CC2` (stereo not shown) [Compound 4, 6-(3-chlorophenyl)-8-[(4-fluorophenyl)hydroxy(4-methyl-4H-1,2,4-triazol-3-yl)methyl]-1,2-dihydro-4H-pyrrolo[3,2,1-ij]quinolin-4-one], the IC50 in data set [1] was 5.77 nM.
Turning to `CC(=O)NC(c1ccc(F)cc1)(c1cc2c3c(c1)c(-c1cccc(Cl)c1)cc(=O)n3CC2)c1nncn1C` (stereo not shown) [Compound 5, N-[[6-(3-chlorophenyl)-1,2-dihydro-4-oxo-4H-pyrrolo[3,2,1-ij]quinolin-8-yl](4-fluorophenyl)(4-methyl-4H-1,2,4-triazol-3-yl)methyl]-acetamide], the melting point stood at 196 °C. In data set [1], the IC50 is 3.4 nM.
The corresponding values for `COC(c1ccc(Cl)cc1)(c1cc2c3c(c1)c(-c1cccc(Cl)c1)cc(=O)n3CCC2)c1nncn1C` (stereo not shown) [Compound 6, 7-(3-chlorophenyl)-9-[(4-chlorophenyl)methoxy(4-methyl-4H-1,2,4-triazol-3-yl)methyl]-2,3-dihydro-1H,5H-benzo[ij]quinolizin-5-one] are 132 °C and less than 100 nM.
`Cn1cnnc1C(OCCO)(c1ccc(F)cc1)c1cc2c3c(c1)c(-c1cccc(Cl)c1)cc(=O)n3CC2` (stereo not shown) [Compound 7, 6-(3-chlorophenyl)-8-[(4-fluorophenyl)(2-hydroxyethoxy)(4-methyl-4H-1,2,4-triazol-3-yl)methyl]-1,2-dihydro-4H-pyrrolo[3,2,1-ij]quinolin-4-one] registered a melting point of 138 °C. Moreover, the IC50 in data set [1] is 3.95 nM.
Turning to `Cn1cnnc1C(c1ccc(F)cc1)(c1cc2c3c(c1)c(-c1cccc(Cl)c1)cc(=O)n3CC2)n1ccnc1` (stereo not shown) [Compound 8, 6-(3-chlorophenyl)-8-[(4-fluorophenyl)-1H-imidazol-1-yl(4-methyl-4H-1,2,4-triazol-3-yl)methyl]-1,2-dibydro-4H-pyrrolo[3,2,1-ij]quinolin-4-one], the IC50 in data set [1] is 3.84 nM.
On the same count and under the same terms, then `Cn1cnnc1C(N)(c1ccc(F)cc1)c1cc2c3c(c1)c(-c1cccc(Cl)c1)cc(=O)n3CC2` (stereo not shown) [Compound 9, 8-[amino(4-fluorophenyl)(4-methyl-4H-1,2,4-triazol-3-yl)methyl]-6-(3-chlorophenyl)-1,2-dihydro-4H-pyrrolo[3,2,1-ij]quinolin-4-one], with 2.98 nM; and `COC(c1ccc(F)cc1)(c1cc2c3c(c1)c(-c1cccc(Cl)c1)cc(=O)n3CC2)c1nncn1C` (stereo not shown) [Compound 10, 6-(3-chlorophenyl)-8-[(4-fluorophenyl)methoxy(4-methyl-4H-1,2,4-triazol-3-yl)methyl]-1,2-dihydro-4H-pyrrolo[3,2,1-ij]quinolin-4-one], with 29.3 nM.
The same measure, in the same setting: with `Cn1cnnc1C(O)(c1ccc(Cl)cc1)c1cc2c3c(c1)c(-c1ccc(Cl)cc1)cc(=O)n3CC2` (stereo not shown) [Compound 11] the figure was less than 100 nM.
Still for that read-out and setting: with `Cn1cnnc1C(O)(c1ccc(Cl)cc1)c1cc2c3c(c1)c(-c1cccc(Cl)c1)c(Br)c(=O)n3CC2` (stereo not shown) [Compound 12] the figure was more than 100 nM; with `Cn1cnnc1C(O)(c1ccc(Br)cc1)c1cc2c3c(c1)c(-c1cccc(Br)c1)cc(=O)n3CC2` (stereo not shown) [Compound 13], 5.86 nM.
